Laboratory results: the NIST ThermoML archive (doi:10.1016/j.fluid.2015.09.038)
Numbers after ± are expanded uncertainties.

Assays:
[1] = Crystal; DTA
[2] = Molar enthalpy of transition or fusion; details: Crystal; DSC

Normal melting temperature [1] | Molar enthalpy of transition or fusion [2] | Structure (SMILES)
-0.92 ± 2 °C | 38.3 ± 7.7 kJ/mol | CCCCCCCCCCCC(=O)OCC [ethyl dodecanoate]
24.78 ± 2 °C | 53 ± 20 kJ/mol | CCCCCCCCCCCCCCCC(=O)OCC [ethyl hexadecanoate]
13.63 ± 2 °C | 45.3 ± 9.1 kJ/mol | CCCCCCCCCCCCC1CCCCC1 [dodecylcyclohexane]
